In general, IC50 refers to the point on the concentration scale where inhibition reaches its midpoint.

The results in this text go back to patent publication US20230136562A1, “SPIROUREA DERIVATIVES” (Idorsia Pharmaceuticals Ltd, priority 2020, published 2023).

Like-named read-outs stand apart in the source and are kept apart here.

The assay concerns primary neuronal cultures from embryonic rat brains. The assay can be described thus: Rat oscillation assay (FLIPR, neuronal calcium oscillations). The class given is cell-based. Particulars: Rattus norvegicus. The essentials: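 Cortical neurons from E18 Wistar rat embryos, cultured 8–10 days at high density, loaded with 1 μM Fluo-8 AM; calcium oscillations recorded by FLIPR once per second in Mg-free HBSS with 2 mM CaCl2, 20 mM HEPES, pH 7.4. Two acquisitions ("Acute", 500 sec, compound added at 250 sec; "20 min"), ± Kv7 blocker XE-991.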

Where [1] appears, read: 20 min, AUC of fluorescence measured 20 min after compound addition, read-out: FLIPR: IC50 [nM] 20 min.
The mark [2] stands for this setting: Acute phase, ratio of AUC fluorescence before and after compound addition, read-out: FLIPR: IC50 [nM] acute.

Consider `COc1c(CNC(=O)NC2CC3(CCC3)C2)cccc1C(F)(F)F` [Example 22, 1-(2-Methoxy-3-trifluoromethyl-benzyl)-3-spiro[3.3]hept-2-yl-urea], for which the IC50 was 268 nM under setting [1] and 275 nM under setting [2].

Turning to `COCC(NC(=O)NC1CC2(CCC2)C1)c1cccc(C(F)(F)F)c1` (racemic) [Example 9, (±)-1-[2-Methoxy-1-(3-trifluoromethyl-phenyl)-ethyl]-3-spiro[3.3]hept-2-yl-urea], the IC50 under setting [1] is 2.1 nM and the IC50 under setting [2] was found to be 5.1 nM.

For the compound `CC(Oc1cc(CNC(=O)NC2CC3(CC3)C2)ncn1)C(F)(F)F` (racemic) [Example 120, (±)-1-Spiro[2.3]hex-5-yl-3-[6-(2,2,2-trifluoro-1-methyl-ethoxy)-pyrimidin-4-ylmethyl]-urea], the IC50 under setting [1] worked out at 151 nM and the concentration for half-maximal inhibition (IC50) under setting [2] stood at 136 nM.

As to `COCC(Oc1cc(CNC(=O)NC2CC3(CCC3)C2)ccn1)C(F)(F)F` (racemic) [Example 107, (±)-1-Spiro[3.3]hept-2-yl-3-[2-(2,2,2-trifluoro-1-methoxymethyl-ethoxy)-pyridin-4-ylmethyl]-urea], the IC50 by setting is: under setting [1], 91 nM; under setting [2], 72 nM.

For `C=CCC(NC(=O)NC1CC2(CCC2)C1)c1cccc(C(F)(F)F)c1` (racemic) [Example 80, (±)-1-Spiro[3.3]hept-2-yl-3-[1-(3-trifluoromethyl-phenyl)-but-3-enyl]-urea], the IC50 is, setting by setting: under setting [1], 14 nM; under setting [2], 13 nM.

For `Cc1cc(OCC(F)(F)F)cc(C(C)NC(=O)NC2CC3(CCC3)C2)c1` (racemic) [Example 32, (±)-1-{1-[3-Methyl-5-(2,2,2-trifluoro-ethoxy)-phenyl]-ethyl}-3-spiro[3.3]hept-2-yl-urea], the half-inhibitory concentration (IC50) is, setting by setting: under setting [1], 14 nM; under setting [2], 24 nM.

For `CC(NC(=O)NC1CC2(CC2)C1)c1cccc(OCC(F)(F)F)c1F` (racemic) [Example 131, (±)-1-{1-[2-Fluoro-3-(2,2,2-trifluoro-ethoxy)-phenyl]-ethyl}-3-spiro[2.3]hex-5-yl-urea], the half-maximal inhibitory concentration (IC50) amounted to 52 nM under setting [1] and 29 nM under setting [2].

In the case of `CC(NC(=O)NC1CC2(C1)CC(F)(F)C2)c1cccc(C(F)(F)F)c1` (racemic) [Example 161, (±)-1-(6,6-Difluoro-spiro[3.3]hept-2-yl)-3-[1-(3-trifluoromethyl-phenyl)-ethyl]-urea], the IC50 amounted to 97 nM under setting [1] and 78 nM under setting [2].

With `Cn1nnnc1C(NC(=O)NC1CC2(CCC2)C1)c1cccc(C(F)(F)F)c1` (racemic) [Example 163, (±)-1-[(1-Methyl-1H-tetrazol-5-yl)-(3-trifluoromethyl-phenyl)-methyl]-3-spiro[3.3]hept-2-yl-urea], the IC50 under setting [1] turned out to be 282 nM and the IC50 under setting [2] was found to be 204 nM.

Regarding `CN(C)CC(Oc1cccc(CNC(=O)NC2CC3(CCC3)C2)n1)C(F)(F)F` (racemic) [Example 105, (±)-1-[6-(1-Dimethylaminomethyl-2,2,2-trifluoro-ethoxy)-pyridin-2-ylmethyl]-3-spiro[3.3]hept-2-yl-urea], the IC50 is, setting by setting: under setting [1], 261 nM; under setting [2], 278 nM.

Regarding `O=C(NC1CC2(CCC2)C1)NC(CO)c1cc(OCC(F)(F)F)ncn1` (racemic) [Example 83, (±)-1-{2-Hydroxy-1-[6-(2,2,2-trifluoro-ethoxy)-pyrimidin-4-yl]-ethyl}-3-spiro[3.3]hept-2-yl-urea], the IC50 reads like this: under setting [1], 100 nM; under setting [2], 93 nM.

For `COCC(NC(=O)NC1CC2(CCC2)C1)c1cc(OCC(F)(F)F)ncn1` (racemic) [Example 78, (±)-1-{2-Methoxy-1-[6-(2,2,2-trifluoro-ethoxy)-pyrimidin-4-yl]-ethyl}-3-spiro[3.3]hept-2-yl-urea], the IC50 under setting [1] amounted to 7.2 nM and the IC50 under setting [2] stood at 9.4 nM.

Take `Cc1nc(OCC(F)(F)F)cc(C(CO)NC(=O)NC2CC3(CC3)C2)n1` (racemic) [Example 123, (±)-1-{2-Hydroxy-1-[2-methyl-6-(2,2,2-trifluoro-ethoxy)-pyrimidin-4-yl]-ethyl}-3-spiro[2.3]hex-5-yl-urea]: the IC50 by setting is: under setting [1], 367 nM; under setting [2], 395 nM.

Take `O=C(NCc1ccnc(OC(F)(F)F)c1)NC1CC2(CC2)C1` [Example 153, 1-Spiro[2.3]hex-5-yl-3-(2-trifluoromethoxy-pyridin-4-ylmethyl)-urea]: the IC50 is, setting by setting: under setting [1], 601 nM; under setting [2], 336 nM.

On to `O=C(NC1CC2(CC2)C1)NC(CCO)c1cccc(OC(F)(F)F)c1` (racemic) [Example 138, (±)-1-[3-Hydroxy-1-(3-trifluoromethoxy-phenyl)-propyl]-3-spiro[2.3]hex-5-yl-urea], for which the IC50 runs as follows: under setting [1], 92 nM; under setting [2], 60 nM.

For the compound `CC(NC(=O)NC1CC2(CC2)C1)c1cccc(S(F)(F)(F)(F)F)c1` (racemic) [Example 127, (±)-1-(1-(3-(pentafluoro-λ^6-sulfaneyl)phenyl)ethyl)-3-(spiro[2.3]hexan-5-yl)urea], the half-inhibitory concentration (IC50) runs as follows: under setting [1], 22 nM; under setting [2], 19 nM.

Turning to `CC(NC(=O)NC1CC2(CCC2)C1)c1cc(OCC(F)(F)F)ccc1Cl` (racemic) [Example 39, (±)-1-{1-[2-Chloro-5-(2,2,2-trifluoro-ethoxy)-phenyl]-ethyl}-3-spiro[3.3]hept-2-yl-urea], the IC50 under setting [1] was 571 nM and the IC50 under setting [2] amounted to 487 nM.

Turning to `COCC(Oc1cccc(CNC(=O)NC2CC3(CCC3)C2)n1)C(F)(F)F` (racemic) [Example 104, (±)-1-Spiro[3.3]hept-2-yl-3-[6-(2,2,2-trifluoro-1-methoxymethyl-ethoxy)-pyridin-2-ylmethyl]-urea], the IC50 is, setting by setting: under setting [1], 295 nM; under setting [2], 292 nM.

Regarding `O=C(NCc1cccc(OC(F)F)c1)NC1CC2(CCC2)C1` [Example 13, 1-(3-Difluoromethoxy-benzyl)-3-spiro[3.3]hept-2-yl-urea], the IC50 under setting [1] is 133 nM and the 50% inhibitory concentration (IC50) under setting [2] came out at 88 nM.

`CC(NC(=O)NC1CC2(CCC2)C1)c1cccc(OC(C)C(F)(F)F)c1` (centres unmarked) [Example 102, 1-(Spiro[3.3]heptan-2-yl)-3-(1-(3-((1,1,1-trifluoropropan-2-yl)oxy)phenyl)ethyl)urea]: the IC50 reads like this: under setting [1], 0.5 nM; under setting [2], 2.8 nM.

Consider `O=C(NC1CC2(CCC2)C1)N[C@H](c1cccc(C(F)(F)F)c1)c1nc[nH]n1` (single isomer, unassigned) [Example 179], for which the IC50 under setting [1] is 13 nM and the IC50 under setting [2] worked out at 24 nM.

For `O=C(NCc1cccc(OCC(F)(F)F)c1)NC1CC2(CC2)C1` [Example 157, 1-Spiro[2.3]hex-5-yl-3-[3-(2,2,2-trifluoro-ethoxy)-benzyl]-urea], the IC50 under setting [1] was 156 nM and the IC50 under setting [2] was found to be 74 nM.

On to `O=C(NCc1cccc(S(F)(F)(F)(F)F)c1)NC1CC2(CC2)C1` [Example 130, 1-(3-(pentafluoro-λ^6-sulfaneyl)benzyl)-3-(spiro[2.3]hexan-5-yl)urea], for which the concentration for half-maximal inhibition (IC50) reads like this: under setting [1], 42 nM; under setting [2], 30 nM.

Consider `O=C(NC1CC2(CCC2)C1)NC1(c2ccnc(OCC(F)(F)F)c2)CCOCC1` [Example 49, 1-Spiro[3.3]hept-2-yl-3-{4-[2-(2,2,2-trifluoro-ethoxy)-pyridin-4-yl]-tetrahydro-pyran-4-yl}-urea], for which the IC50 turned out to be 1530 nM under setting [1] and 680 nM under setting [2].

Turning to `C[C@@H](NC(=O)NC1CC2(CCC2)C1)c1cc(OCC(F)(F)F)ncn1` (single isomer, unassigned) [Example 183], the concentration for half-maximal inhibition (IC50) by setting is: under setting [1], 1990 nM; under setting [2], 1420 nM.

On to `O=C(NC1CC2(CCC2)C1)NC1(c2ccnc(OC(F)F)c2)CCC1` [Example 51, 1-[1-(2-Difluoromethoxy-pyridin-4-yl)-cyclobutyl]-3-spiro[3.3]hept-2-yl-urea], for which the IC50 is 65 nM under setting [1] and 80 nM under setting [2].

For the compound `COCC(NC(=O)NC1CC2(CCC2)C1)c1cccc(S(C)(=O)=O)c1` (racemic) [Example 86, (±)-1-[1-(3-Methanesulfonyl-phenyl)-2-methoxy-ethyl]-3-spiro[3.3]hept-2-yl-urea], the IC50 is 91 nM under setting [1] and 110 nM under setting [2].

Turning to `CC(NC(=O)NC1CC2(CC2)C1)c1cc(OCC(F)(F)F)ccc1F` (racemic) [Example 129, (±)-1-{1-[2-Fluoro-5-(2,2,2-trifluoro-ethoxy)-phenyl]-ethyl}-3-spiro[2.3]hex-5-yl-urea], the IC50 was 254 nM under setting [1] and 212 nM under setting [2].

In the case of `C[C@H](NC(=O)NC1CC2(CCC2)C1)c1cccc(OCC(F)(F)F)c1` (single isomer, unassigned) [Example 176], the IC50 runs as follows: under setting [1], 4.3 nM; under setting [2], 2.9 nM.

Consider `O=C(NCc1cccc(OC(F)(F)F)c1)NC1CC2(CC2)C1` [Example 156, 1-Spiro[2.3]hex-5-yl-3-(3-trifluoromethoxy-benzyl)-urea], for which the IC50 under setting [1] worked out at 83 nM and the IC50 under setting [2] came out at 60 nM.

Turning to `O=C(NCc1cc(C(F)(F)F)ccc1O)NC1CC2(CCC2)C1` [Example 38, 1-(2-Hydroxy-5-trifluoromethyl-benzyl)-3-spiro[3.3]hept-2-yl-urea], the IC50 runs as follows: under setting [1], 330 nM; under setting [2], 627 nM.

On to `O=C(NC1CC2(CCC2)C1)NC(c1cccc(C(F)(F)F)c1)C(F)(F)F` (centres unmarked) [Example 58, 1-Spiro[3.3]hept-2-yl-3-[2,2,2-trifluoro-1-(3-trifluoromethyl-phenyl)-ethyl]-urea], for which the IC50 came to 16 nM under setting [1] and 20 nM under setting [2].

For the compound `O=C(NC1CC2(CCC2)C1)N[C@@H](CO)c1cccc(C(F)(F)F)c1` (single isomer, unassigned) [Example 184], the half-maximal inhibitory concentration (IC50) is, setting by setting: under setting [1], 5.7 nM; under setting [2], 8.8 nM.

Take `O=C(NC1CC2(CCC2)C1)NC1COc2ccc(OC(F)(F)F)cc21` (racemic) [Example 11, (±)-1-Spiro[3.3]hept-2-yl-3-(5-trifluoromethoxy-2,3-dihydro-benzofuran-3-yl)-urea]: the IC50 under setting [1] is 171 nM and the IC50 under setting [2] was found to be 246 nM.
